Source: patent US20160295854A1, “COMPOSITION AND METHOD FOR EX-VIVO IMMUNOMODULATION AND/OR PRESERVATION OF ORGANS, METHODS AND USE” (UNIAO BRASILEIRA DE EDUCACAO E ASSISTENCIA , MANTENEDORA DA …, priority 2014, published 2016)

Tests used:
[1] = system: MARCH-I; experiment: MARCH-I mRNA in DCs by real time PCR; type: cell-based, mice (Mus musculus)
Protocol: (§1) The supernatants were collected and used for analyzing cytokine. The cells were further treated with 20 ng/ml of Rapamycin (Cell Signaling), 1 μg/ml of Cyclosporine A (Roche) or 20 ng/ml of IL-10 recombinant murine (R&D System) for 24 h and the total RNA was removed.
The total RNA was isolated from the DCs treated using the kit RNAeasy (Qiagen), according to the manufacturer instructions. The total purified RNA concentration was determined with the kit Qubit® RNA Assay Kit (Invitrogen), read in the Qubit® Fluorometer (Invitrogen). 50 ng of the RNA had reverse transcriptase with 100 U of Sensiscript (Qiagen). DNA concentrations were determined with the kit Qubit® dsDNA HS Assay (Invitrogen), read in the Qubit® Fluorometer (Invitrogen). In a final volume of 10 μL, 8 ng of cDNA were applied using some assays Taqman® Gene Expression (Applied Biosystems): IL10 (Mm00439614_m1), March1 (Mm00613524_m1) and β-actin (4352933E), according to the manufacturer recommendations.
The quantitative real time PCR was performed in the instrument StepOne™ Real-Time PCR System (Applied Biosystems). The relative levels of mRNA were calculated according to the comparative method of Ct, described by […] & LIVAK (2008). The β-actin constituent gene was used as setter. Non-treated DCs served as reference for OVA or Hsp70-treated DCs.
(§2) After that, IL-10 mRNA levels were analyzed by Real-time PCR. The β-actin was used as a setter. The IL-10 concentration was measured in the cultures supernatant by flow cytometry. […] (C) As in A, however the MARCH-I mRNA levels were analyzed by Real-time PCR. […] DCs IL-10 KO were also treated with Recombinant IL-10. All treatments were performed for 24 h and MARCH-I mRNA levels were analyzed by Real-time PCR. […] After this period, grafts were sutured in the BALB/c animals' back and the acceptance was daily monitored. Graphs expressed on average ±SEM. *, p<0.05; **, p<0.01; ***, […]. n=3-5 mice per group. Representative results of 3 independent experiments.
After this period, the MARCH-I expression increase was analyzed by Real-time PCR.

[2] = system: MHC II; experiment: MHC II (I-A^b) expression in DCs isolated from skin draining lymph nodes; type: cell-based, mice (Mus musculus)
Protocol: CD11c+ cells were purified from lymph nodes that drain mice skin antigens C57Bl/6 WT or TLR2 KO, and 129Sv/Ev WT or IL-10 KO. The animals were sacrificed and the axial, brachial and inguinal lymph nodes were removed. These organs were macerated in a nylon screen with a mean that has D Collagenase (Roche). The cell suspension achieved was marked with the magnetic beads conjugated with an anti-CD11c antibody (N418) (Miltenyi Biotech) for 15 min. After being washed, the CD11c+ cells were purified by positive selecting using the MACS MS (Miltenyi Biotech) separation columns, according to the manufacturer instructions. The cells purity purified was controlled by flow cytometry, indicating a purity of 90% CD11c+ cells in the positive fraction. Therefore, the cells were grown in 96-well plates in serum free mean AIM-V® (Gibco).
as §1
For analyzing the migration and activation of the DCs subtypes, the cells were marked for I-A^b (AF6-120.1), CD11c (HL3), CD11b (M1/70), CD45R/B220 (RA3-6B2), CD103 (M290), CCR7 (CD197-4B12), CD80 (16-10A1), CD86 (GL1) antibodies achieved from BD Biosciences; and Langerin (CD207—eBioRMUL.2) from eBioscience.
After this period, the expression of I-A^b in the DCs was analyzed by flow cytometry.
(A) Analysis strategy for DCs subtypes present in the mice recipients DNL. […] After this period, the expression of I-A^b was analyzed in the DCs CD103+. Graphs expressed on average ±SEM. **, p<0.01; ***, […]. n=3 mice per group. Representative results of 3 independent experiments.
as §2
The β-actin was used as setter. […] (C) Representative graphs and percentages of the CD11c+ I-Ab^hi, CD11c+I-Ab^int and CD11c+I-Ab^low cells of DCs isolated from LNs draining skin antigens of WT animals or TLR2 KO. […] After this period, the treated grafts were sutured in the BALB/c animals' back and the acceptance was daily monitored. […]

[3] = system: IL-10; experiment: IL-10 production by DCs (real time PCR and CBA); type: cell-based, mice (Mus musculus)
[4] = system: donor cells (I-A^b+ or GFP+) in recipient DLN; experiment: Donor migratory cells screened in the recipient DLN by flow cytometry; type: in vivo, mice (Mus musculus)

Q: Which “MARCH-I mRNA levels in DCs IL-10 KO (FIG. 11 D)” value ([1]; DCs from IL-10 knockout animals, 24 h, compared with DCs WT) does the source give for “Hsp70: recombinant Mycobacterium tuberculosis Hsp70 (DnaK) produced in Escherichia coli BL21, LPS removed” here?
A: The value was “did not present an increase”.

Q: And the “increase in the MARCH-I mRNA (FIG. 11 C)” value ([1]; DCs isolated from LNs, 24 h)?
A: Its value is 20 times.

Q: And the “MARCH-I induction on DCs regarding the basal medium (FIG. 24)” value ([1]; lymph node DCs, 24 hours, Hsp70 30 μg/mL, Rapamycin 20 ng/ml, Cyclosporine A 1 μg/ml, IL-10 20 ng/ml)?
A: The value was “only treatment able to induce MARCH-I”.

Q: What about the “MHC II expression in DCs isolated from skin draining lymph nodes (FIG. 3)” value ([2]; 24 h, vs OVA) of the same substance?
A: Its value is “increase in the number of DCs expressing intermediate or low levels of MHC II”.

Q: What about the “MHC II expression inhibition in DCs TLR2 KO (FIG. 12 C)” value ([2]; DCs isolated from LNs of WT or TLR2 KO) of the same substance?
A: Its value is “dependent on TLR2”.

Q: What about the “reduction of MHC II expression in IL-10 KO DCs (FIG. 11 B)” value ([2]; DCs of knockout animals for IL-10) of the same substance?
A: The value was “not possible to note this phenomenon”.

Q: And the “MHC II expression in DCs CD103+ isolated from the lymph nodes (FIG. 9 C)” value ([2]; in vitro, 30 μg/ml, 24 h)?
A: Its value is “reduce in vitro the MHC II expression”.

Q: And the “IL-10 production, mRNA and protein level (FIG. 11 A)” value ([3]; DCs isolated from mice lymph nodes, 24 h)?
A: Its value is “induce the IL-10 production”.

Q: What about the “IL-10 mRNA and protein in DCs TLR2 KO (FIG. 12 A, B)” value ([3]; TLR2 KO compared with DCs WT) of the same substance?
A: The value was “significant reduction of the mRNA expression”.

Q: And the “MHC II levels in DCs CD103+ migrating from the graft to the recipient DLN (FIG. 9 B)” value ([4]; 24 h or 96 h after transplantation)?
A: The value was “significant reduction of MHC II levels”.

Q: And the “CD80 and CD86 levels of donor DCs (FIG. 6 C)” value ([4]; 24 h or 96 h after transplantation, vs OVA)?
A: Its value is “reduced levels of CD80 and CD86”.

Q: What about the “CCR7 expression in migratory donor DCs” value ([4]; 24 hours after transplantation, vs OVA) of the same substance?
A: Its value is “upper levels of CCR7”.

Q: What about the “CCR7 expression in migratory donor DCs” value ([4]; four days after transplantation, vs OVA) of the same substance?
A: Its value is “did not differ”.

Q: What about the “MHC II expression in donors DCs in recipient DLN (FIG. 6 A, B)” value ([4]; graft treated by immersion, vs OVA) of the same substance?
A: Its value is “MHC II expression reduction”.

Q: What about the “donor cells (I-A^b+ or GFP+) in the recipient DLN” value ([4]; one and four days after transplantation, vs OVA) of the same substance?
A: The value was “not noted any difference”.
